Results as given in patent US20200149049A1, “METHODS AND COMPOSITIONS RELATING TO ANTI-CALCIFICATION” (THE BRIGHAM AND WOMEN'S HOSPITAL, INC., priority 2017, published 2020).
Entries after “also recorded” stand apart in the source; their conditions may differ.

Key:
Assay type in all cases: cell-based, human
hCASMCs [1] = assay: Gene expression assay (TaqMan real-time PCR) in hCASMCs
Experimental: FIG. 32 depicts graphs of the effects of PPAR agonists on gene expressions in hCASMCs. HCASMCs were maintained under the same condition with FIG. 23A-23C. Next day after cell seeding, medium was changed to 1% FCS DMEM. After 24 hours, hCASMCs were stimulated by 100 nM K-877 (K877), 100 nM GW-501516 (GW) and 100 nM rosiglitazone (Rosi). After 18 hours, the mRNA samples were isolated by TRIzol Reagent.
FIGS. 33A-33D depict the effects of CROT silencing on CDNK1A (FIG. 33A), DUSP1 (FIG. 33B), HMOX1 (FIG. 33C) and SAT1 (FIG. 33D) gene expression in hCASMCs. HCASMCs were maintained under the same condition with FIGS. 23A-23C. The mRNA samples from hCASMCs were isolated using TRIzol Reagent on Day 7. *: P<0.05, **: P<0.01 (vs. NM-siCont or OM-siCont, Student's t-test, N=3).
HCASMCs were maintained under the same condition with FIGS. 23A-23C. BMP7 was not detected. The mRNA samples from hCASMCs were isolated using TRIzol Reagent on Day 7. *: P<0.05 (vs. OM-siCont, Student's t-test, N=3).
FIG. 35 depicts the effects of PPAR agonists GW-501516 on SLC20A1 gene expression in hCASMCs. HCASMCs were maintained under the same condition with FIGS. 23A-23C. HCASMCs were stimulated by 100 nM GW-501516 (GW). After 18 hours, the mRNA samples were isolated by TRIzol Reagent. **: P<0.01, (vs. Control, Student's t-test, N=3).
RNA preparation and real-time PCR. Total RNA from the cell culture was isolated using TRIZol (Life Technologies). Reverse transcription was performed using the QuantiTect Reverse Transcription Kit (Qiagen). The mRNA expression was determined by TaqMan-based real-time PCR reactions (Life Technologies). The following TaqMan probes were used: 4326315E (human β-actin), (human SLC20A1), (human BMP2), (human BMP4), (human BMP7). The expression levels were normalized to β-actin. Results were calculated using the […] method, and presented as fold increase relative to control.

hCASMCs [2] = assay: Mineralization assay (Alizarin Red staining, calcium deposition); conditions: hCASMCs in osteogenic medium with siRNA, Day 21
Experimental: (§1) FIGS. 22A-22C depict the effects of the SORT1, AASS, CROT, IL1R1, ITGBL1, METTL7A and NNMT silencing on calcium deposition and TNAP activity in hCASMCs. HCASMCs were treated with siRNAs in NM. After 3 days, the medium was changed to OM with the siRNA. On Day 21, cells were fixed in 4% formalin for 10 min and washed twice with PBS for Alizarin Red staining. The cells were stained with 2% Alizarin Red solution for 20 min at RT and rinsed twice with water (FIG. 22A). Then, the Alizarin Red was extracted by 10 mM cetylpyridinium chloride and the extracts were measured on the absorbance (540 nm) (FIG. 22B). On Day 14, TNAP activity was determined using Alkaline Phosphatase Activity Colorimetric Assay Kit (FIG. 22C).
(§2) FIGS. 23A-23C depict teffects of the CROT silencing on calcium deposition and TNAP activity in hCASMCs. HCASMCs were treated with siRNAs in NM. […] Then, the Alizarin Red was extracted by 10 mM cetylpyridinium chloride and the extracts were measured on the absorbance (540 nm) (FIG. 23B). On Day 14, TNAP activity was determined using Alkaline Phosphatase Activity Colorimetric Assay Kit (FIG. 23C). **: P<0.01, ***: P <0.001 (vs. OM-siControl, Student's t-test, N=3-4). […]
Mineralization assay and activity of tissue non-specific alkaline phosphatase. Mineralized matrix formation was assessed by Alizarin Red staining. […] Aliquots were taken and measured with a spectrophotometer at 540 nm.

TNAP activity in hCASMCs = assay: Tissue non-specific alkaline phosphatase (TNAP) activity in cell cultures; conditions: hCASMCs in osteogenic medium with siRNA; Day 14
Experimental: as §1
as §2, with “NM. After 3 days, the medium was changed to OM with the siRNA.” for “NM.”
Tissue non-specific alkaline phosphatase (TNAP) activity was measured in cell cultures using the Alkaline Phosphatase Activity Colorimetric Assay Kit (BioVision). […]

Row | Compound | SLC20A1 gene expression (hCASMCs [1]; PPARδ agonist, after 24 h) | CDKN1A gene expression (hCASMCs [1]; response to PPARδ agonist) | DUSP1 gene expression (hCASMCs [1]; response to PPARδ agonist) | HMOX1 gene expression (hCASMCs [1]; response to PPARδ agonist) | SAT1 gene expression (hCASMCs [1]; response to PPARδ agonist) | Ca deposition (hCASMCs [2]) | HMOX1 expression (hCASMCs [1]; CROT siRNA, Day 7) | TNAP activity (TNAP activity in hCASMCs)
1 | Cc1cc(SCc2sc(-c3ccc(C(F)(F)F)cc3)nc2C)ccc1OCC(=O)O [PPARδ agonist, GW-501516] | suppressed; also recorded: reduced | affected | affected | affected | affected | – | – | –
2 | siCROT: siRNA silencing CROT; patent names inhibitory nucleic acid CACUUCAGCUGGCCUAUUA (SEQ ID NO: 1) as CROT inhibitor (listed as RNA, chemistry not given here) | – | – | – | – | – | decreased | induced | decreased
